The viscosity is the resistance of a fluid to flow. Low values mean easy flow, high ones sluggish flow.

Results on 12 molecules are retold here after the CheMixHub viscosity set.

Values joined by “and” are separate entries in the source; they are usually repeats but may differ in a detail not shown here. Equal values may be shown once. ± gives the uncertainty stated by the source.

In the case of `CCCCCCCC(=O)OCC`, the viscosity reads like this: (293.15 K, 100 kPa) 1.549 ± 0.048 mPa·s; (303.15 K, 100 kPa) 1.295 ± 0.04 mPa·s; (313.15 K, 100 kPa) 1.095 ± 0.034 mPa·s; (323.15 K, 100 kPa) 0.949 ± 0.03 mPa·s.
As to `CCCCCCOC(C)=O`, the viscosity was 1.078 ± 0.021 mPa·s (293.15 K, 101.33 kPa); 0.782 ± 0.018 mPa·s (303.15 K, 101.33 kPa); 0.672 ± 0.017 mPa·s (313.15 K, 101.33 kPa).
The molecule `CCCCOCC(C)O` (stereo unspecified) yielded a viscosity (298.15 K, 101.33 kPa) of 2.855 ± 0.042 mPa·s; a viscosity (308.15 K, 101.33 kPa) of 2.142 ± 0.032 mPa·s; a viscosity (318.15 K, 101.33 kPa) of 1.655 ± 0.025 mPa·s.
As for `CCCC[N+]1(C)CCCC1.FC(F)(F)C(F)(F)[P-](F)(F)(F)(C(F)(F)C(F)(F)F)C(F)(F)C(F)(F)F`, the viscosity is reported as 283.4 ± 19 mPa·s (298.15 K, 101 kPa); 214 ± 13 mPa·s (303.15 K, 101 kPa); 166.2 ± 9.3 mPa·s (308.15 K, 101 kPa); 122.1 ± 6.1 mPa·s (313.15 K, 101 kPa); 100.3 ± 4.6 mPa·s (318.15 K, 101 kPa); 80.1 ± 3.5 mPa·s (323.15 K, 101 kPa).
Where the note is “303.15 K, 101 kPa”, `CCOC(=O)C(C)Br` (stereo unspecified) showed a viscosity of 1.493 ± 0.0094 mPa·s.
In the case of `CC[n+]1ccn(C)c1.O=C([O-])C(F)(F)F`, the viscosity is on record as 39.5 ± 0.9 mPa·s (293.15 K, 101 kPa); 32.9 ± 0.7 mPa·s (298.15 K, 101 kPa); 27.5 ± 0.6 mPa·s (303.15 K, 101 kPa); 19.9 ± 0.5 mPa·s (313.15 K, 101 kPa).
Turning to `CN(C)N`, the viscosity (293.15 K, 101.3 kPa) was determined as 0.55 ± 0.02 mPa·s.
Take `COC(C)=O`: the viscosity is 0.411 ± 0.011 mPa·s (293.15 K, 101 kPa); 0.3448 ± 0.0047 mPa·s and 0.3442 ± 0.0032 mPa·s and 0.3448 ± 0.0027 mPa·s (303.15 K, 101.3 kPa); 0.321 ± 0.007 mPa·s and 0.3524 ± 0.0059 mPa·s and 0.331 ± 0.02 mPa·s (313.15 K, 101 kPa); 0.331 ± 0.005 mPa·s (313.15 K, 101.33 kPa); 0.299 ± 0.006 mPa·s and 0.313 ± 0.0085 mPa·s (318.15 K, 101 kPa).
On to `COCCOC`, for which the viscosity runs as follows: (298 K, 101.3 kPa) 0.432 ± 0.004 mPa·s; (298.15 K, 101 kPa) 0.45 ± 0.048 mPa·s; (298.15 K, 101.33 kPa) 0.4236 ± 0.025 mPa·s; (301.15 K, 100 kPa) 0.6 ± 0.1 mPa·s and 0.7 ± 0.1 mPa·s; (308.15 K, 101 kPa) 0.445 ± 0.048 mPa·s and 0.3812 ± 0.0042 mPa·s; (308.15 K, 101.33 kPa) 0.3847 ± 0.023 mPa·s. For the same molecule, the viscosity is, setting by setting: (313.15 K, 101 kPa) 0.3628 ± 0.004 mPa·s; (318.15 K, 101 kPa) 0.3444 ± 0.0039 mPa·s; (318.15 K, 101.33 kPa) 0.3496 ± 0.021 mPa·s; (323.15 K, 101 kPa) 0.3284 ± 0.0037 mPa·s.
Take `COc1ccccc1N`: the viscosity runs as follows: (298.15 K, 100 kPa) 5.374 ± 0.11 mPa·s; (303.15 K, 101 kPa) 4.924 ± 0.089 mPa·s and 4.922 ± 0.11 mPa·s and 4.922 ± 0.21 mPa·s; (308.15 K, 101 kPa) 4.512 ± 0.1 mPa·s and 4.512 ± 0.2 mPa·s; (313.15 K, 101 kPa) 4.185 ± 0.093 mPa·s and 4.185 ± 0.18 mPa·s; (318.15 K, 101 kPa) 3.883 ± 0.087 mPa·s and 3.883 ± 0.17 mPa·s.
Regarding `C[N+](C)(CCCS(=O)(=O)O)C1CCCCC1.Cc1ccc(S(=O)(=O)[O-])cc1`, the viscosity reads like this: (303.15 K, 101 kPa) 113700 mPa·s; (308.15 K, 101 kPa) 56930 mPa·s; (313.15 K, 101 kPa) 32650 mPa·s; (318.15 K, 101 kPa) 17830 mPa·s; (323.15 K, 101 kPa) 10190 mPa·s.
The molecule `Cc1ccc(C)c(C)c1` returned a viscosity (293.15 K, 102 kPa) of 0.84 ± 0.022 mPa·s; a viscosity (303.15 K, 102 kPa) of 0.731 ± 0.021 mPa·s; a viscosity (313.15 K, 102 kPa) of 0.64 ± 0.021 mPa·s; a viscosity (323.15 K, 102 kPa) of 0.567 ± 0.021 mPa·s.
